Measurements taken from patent US20250011304A1, “CRYSTALLINE FORM OF N-(2-CHLORO-3-((5-CHLORO-3-METHYL-4-OXO-3,4-DIHYDROQUINAZOLIN-6-YL)AMINO)-4-FLUOROPHENYL)-3-FLUOROAZETIDINE-1-SULFONAMIDE” (Array BioPharma Inc., priority 2021, published 2025).
Entries after “also recorded” stand apart in the source; their conditions may differ.

Tests used:
BCRP [1] = molecular target: T1, BCRP (Mus musculus, UniProt Q7TMS5); conditions: reported by Mittapalli et al.; cited from earlier work
T1 sequence (Q7TMS5 1-657): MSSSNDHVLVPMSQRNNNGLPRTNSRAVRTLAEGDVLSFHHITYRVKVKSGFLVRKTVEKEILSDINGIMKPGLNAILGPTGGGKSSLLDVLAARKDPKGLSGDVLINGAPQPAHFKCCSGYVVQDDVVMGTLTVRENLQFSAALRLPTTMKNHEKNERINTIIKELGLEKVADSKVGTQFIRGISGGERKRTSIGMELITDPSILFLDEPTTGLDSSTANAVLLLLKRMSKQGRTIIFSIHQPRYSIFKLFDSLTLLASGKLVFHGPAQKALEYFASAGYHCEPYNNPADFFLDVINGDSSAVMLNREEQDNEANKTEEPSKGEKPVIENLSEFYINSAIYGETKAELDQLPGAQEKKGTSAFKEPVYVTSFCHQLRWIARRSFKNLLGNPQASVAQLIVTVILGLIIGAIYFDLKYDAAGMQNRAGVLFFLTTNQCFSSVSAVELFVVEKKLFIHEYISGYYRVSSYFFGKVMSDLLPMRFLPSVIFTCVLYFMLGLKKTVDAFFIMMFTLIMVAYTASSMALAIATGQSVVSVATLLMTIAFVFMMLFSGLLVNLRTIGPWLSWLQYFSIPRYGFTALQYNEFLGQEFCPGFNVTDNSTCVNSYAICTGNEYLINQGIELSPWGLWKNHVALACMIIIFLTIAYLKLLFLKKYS

[2] = Physical stability analysis by PXRD; format: physicochemical; conditions: for physical stability under accelerated stability conditions: 70° C./75% relative humidity (RH) for 8 days
Method: Powder X-ray Diffraction (PXRD) method for characteristic peak determination Powder X-ray diffraction analysis was conducted using a Bruker AXS D8 Endeavor diffractometer equipped with a Copper (Cu) radiation source. The divergence slit was set at 15 mm continuous illumination. Diffracted radiation was detected by a PSD-Lynx Eye detector, with the detector PSD opening set at 2.99 degrees. The X-ray tube voltage and amperage were set to 40 kV and 40 mA respectively. Data was collected in the Theta-Theta goniometer at the Cu wavelength (CuKα=[…]) from 3.0 to 40.0 degrees 2-Theta using a step size of 0.01 degrees and a step time of 1.0 second. The antiscatter screen was set to a fixed distance of 3.0 mm. Samples were rotated at 15/min during collection. Samples were prepared by placing them in a silicon low background sample holder and rotated during collection. Data were collected using Bruker DIFFRAC Plus software and analysis was performed by EVA diffract plus software. The PXRD data file was not processed prior to peak searching. Using the peak search algorithm in the EVA software, peaks selected with a threshold value of 1 were used to make preliminary peak assignments. To ensure validity, adjustments were manually made; the output of automated assignments was visually checked, and peak positions were adjusted to the peak maximum. Peaks with relative intensity of >3% were generally chosen. Typically, the peaks which were not resolved or were consistent with noise were not selected. A typical error associated with the peak position from PXRD stated in USP up to +/−0.2° 2-Theta (USP-941).
Table 5 details the differences between Form 1 and amorphous form.

[3] = Hygroscopicity (DVS water sorption and desorption); format: physicochemical; conditions: for Hygroscopicity: DVS 0-90% RH; for Mass Gain at 25° C. and 60% RH / Mass Gain at 25° C. and 90% RH: DVS; for PXRD Post-DVS: solid form of powder remaining after DVS analysis
Method: Water sorption and desorption were analyzed with a DVS-Resolution. The microbalance was calibrated with a 100 mg standard weight on a monthly basis. About 8 mg of the compound was added to a sample pan and placed inside chamber A of the DVS-Resolution. Percent relative humidity was held at 0% for 1 hour, and increased to 90% in 10% increments, then ramped back to 0% in 10% increments. […] The powder material remaining following the DVS analysis was analyzed by PXRD to determine if a change in the diffraction pattern is observed.

[4] = molecular target: T2, full-length FLAG-tagged B-Raf(V600E) (Homo sapiens, UniProt P15056, V600E); test: BRAF V600E enzyme assay (TR-FRET competitive tracer displacement); format: binding; conditions: 60 min, ambient temperature
T2 construct: 5 nM full-length, N-terminally FLAG-tagged B-Raf(V600E) (Origene Technologies, TP700031); purchased Origene Technologies TP700031
T2 sequence (P15056 whole entry V600E): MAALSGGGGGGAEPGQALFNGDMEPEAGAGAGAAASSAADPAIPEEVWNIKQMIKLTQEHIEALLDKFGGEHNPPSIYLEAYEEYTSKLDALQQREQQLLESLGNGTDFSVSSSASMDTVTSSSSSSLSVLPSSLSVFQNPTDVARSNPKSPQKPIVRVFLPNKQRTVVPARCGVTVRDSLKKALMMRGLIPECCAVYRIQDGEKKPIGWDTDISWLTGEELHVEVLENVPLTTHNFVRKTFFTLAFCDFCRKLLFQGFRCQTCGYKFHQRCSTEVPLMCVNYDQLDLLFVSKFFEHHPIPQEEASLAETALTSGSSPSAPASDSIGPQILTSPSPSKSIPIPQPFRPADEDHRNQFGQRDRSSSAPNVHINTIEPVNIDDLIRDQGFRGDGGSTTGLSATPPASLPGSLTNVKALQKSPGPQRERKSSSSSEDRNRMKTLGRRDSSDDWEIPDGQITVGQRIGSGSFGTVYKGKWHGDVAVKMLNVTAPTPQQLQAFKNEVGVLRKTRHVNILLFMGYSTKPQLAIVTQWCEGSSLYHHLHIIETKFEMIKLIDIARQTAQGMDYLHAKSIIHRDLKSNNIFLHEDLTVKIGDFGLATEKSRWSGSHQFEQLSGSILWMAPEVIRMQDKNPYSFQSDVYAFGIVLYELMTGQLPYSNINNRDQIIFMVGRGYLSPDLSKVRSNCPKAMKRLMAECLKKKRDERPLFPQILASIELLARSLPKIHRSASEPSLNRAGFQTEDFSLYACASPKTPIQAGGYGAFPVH
Method: A competitive displacement assay was configured for B-Raf that monitors the amount of a fluorescently-tagged “tracer” bound to B-Raf via TR-FRET from an anti-tag Eu-labeled antibody also bound to B-Raf. For full-length FLAG-tagged B-Raf(V600E), the assay mixtures consisted of 25 mM K^+HEPES, pH 7.4, 10 mM MgCl2, 0.01% Triton X-100, 1 mM DTT, 2% DMSO (from compound), 50 nM Tracer 1710 (ThermoFisher, PR9176A), 0.5 nM Eu anti-FLAG (M2)-cryptate Ab (Cisbio, 61FG2KLB) and 5 nM full-length, N-terminally FLAG-tagged B-Raf(V600E) (Origene Technologies, TP700031. N-(2-chloro-3-((5-chloro-3-methyl-4-oxo-3,4-dihydroquinazolin-6-yl)amino)-4-fluorophenyl)-3-fluoroazetidine-1-sulfonamide was diluted in DMSO across an 11-point dosing range created using a 3-fold serial dilution protocol at a top dose of 10 μM. The assay was run in 384-well, polystyrene, low-volume, non-treated, white microtiter plates (Costar 4512) in a final volume of 12 μL. Low control wells included 1 μM of a potent B-Raf inhibitor as a control. The assays were incubated at ambient temperature (typically 22° C.) for 60 min and then read on a PerkinElmer EnVision microplate reader using standard TRF settings (λEx=320 nm, λEm=615 & 665 nm). The ratioed counts (665 nm/615 nm) were converted to percent of control (POC) using the following equation:
[formula] • where: • xmax Average Uninhibited Controls • Xmin Average Background […]

MDR1 (P-gp) = molecular target: T3, MDR1 (P-gp) (Homo sapiens, UniProt P08183); test: MDR1 LLC-PK1 permeability assay (efflux); format: in vitro ADME; conditions: statement in background
T3 construct: expressed in transfected cells; host or cells: LLC-PK1
T3 sequence (P08183 whole entry, species assumed): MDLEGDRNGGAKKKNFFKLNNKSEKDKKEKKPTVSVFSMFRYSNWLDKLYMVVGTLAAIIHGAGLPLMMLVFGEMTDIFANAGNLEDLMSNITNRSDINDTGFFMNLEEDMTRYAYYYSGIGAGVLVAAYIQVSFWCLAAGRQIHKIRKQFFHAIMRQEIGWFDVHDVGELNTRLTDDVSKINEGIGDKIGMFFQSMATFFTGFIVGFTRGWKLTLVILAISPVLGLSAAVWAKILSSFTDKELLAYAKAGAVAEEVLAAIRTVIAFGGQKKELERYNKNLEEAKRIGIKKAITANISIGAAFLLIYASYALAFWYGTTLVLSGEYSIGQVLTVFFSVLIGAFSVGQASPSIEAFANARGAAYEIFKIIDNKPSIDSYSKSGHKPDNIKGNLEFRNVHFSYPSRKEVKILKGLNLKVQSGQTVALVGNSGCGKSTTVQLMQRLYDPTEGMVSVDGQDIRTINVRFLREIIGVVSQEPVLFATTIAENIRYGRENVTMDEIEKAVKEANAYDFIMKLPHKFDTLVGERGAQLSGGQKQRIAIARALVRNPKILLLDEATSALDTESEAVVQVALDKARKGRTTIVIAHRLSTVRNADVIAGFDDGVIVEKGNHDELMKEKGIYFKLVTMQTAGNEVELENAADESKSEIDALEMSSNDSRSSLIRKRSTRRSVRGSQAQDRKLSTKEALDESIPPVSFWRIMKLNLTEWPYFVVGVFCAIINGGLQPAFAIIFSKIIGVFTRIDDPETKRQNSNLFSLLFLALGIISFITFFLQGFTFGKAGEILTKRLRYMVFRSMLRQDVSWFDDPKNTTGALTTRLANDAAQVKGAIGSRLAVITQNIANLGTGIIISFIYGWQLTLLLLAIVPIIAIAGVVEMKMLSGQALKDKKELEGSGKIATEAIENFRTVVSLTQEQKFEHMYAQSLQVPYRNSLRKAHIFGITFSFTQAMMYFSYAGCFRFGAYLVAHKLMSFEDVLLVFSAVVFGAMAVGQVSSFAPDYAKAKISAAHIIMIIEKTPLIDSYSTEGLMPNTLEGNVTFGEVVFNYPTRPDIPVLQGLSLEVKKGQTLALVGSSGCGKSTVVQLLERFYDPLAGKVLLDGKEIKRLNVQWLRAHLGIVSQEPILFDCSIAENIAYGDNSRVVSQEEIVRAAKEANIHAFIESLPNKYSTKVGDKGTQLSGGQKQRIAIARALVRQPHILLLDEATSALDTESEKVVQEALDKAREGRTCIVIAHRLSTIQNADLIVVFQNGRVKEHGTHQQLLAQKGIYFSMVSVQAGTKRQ
From the text: (§1) Final organic concentration in the assay was 1%.
(§2) The efflux ratios for N-(2-chloro-3-((5-chloro-3-methyl-4-oxo-3,4-dihydroquinazolin-6-yl)amino)-4-fluorophenyl)-3-fluoroazetidine-1-sulfonamide (Compound 1) when tested in this assay were 2.1 (MDR1) and 4.2 (BCRP).

BCRP [5] = molecular target: T4, BCRP (Homo sapiens, UniProt Q9UNQ0); test: BCRP MDCKII permeability assay (efflux); format: in vitro ADME; conditions: statement in background
T4 construct: expressed in transfected cells; host or cells: MDCKII
T4 sequence (Q9UNQ0 1-655): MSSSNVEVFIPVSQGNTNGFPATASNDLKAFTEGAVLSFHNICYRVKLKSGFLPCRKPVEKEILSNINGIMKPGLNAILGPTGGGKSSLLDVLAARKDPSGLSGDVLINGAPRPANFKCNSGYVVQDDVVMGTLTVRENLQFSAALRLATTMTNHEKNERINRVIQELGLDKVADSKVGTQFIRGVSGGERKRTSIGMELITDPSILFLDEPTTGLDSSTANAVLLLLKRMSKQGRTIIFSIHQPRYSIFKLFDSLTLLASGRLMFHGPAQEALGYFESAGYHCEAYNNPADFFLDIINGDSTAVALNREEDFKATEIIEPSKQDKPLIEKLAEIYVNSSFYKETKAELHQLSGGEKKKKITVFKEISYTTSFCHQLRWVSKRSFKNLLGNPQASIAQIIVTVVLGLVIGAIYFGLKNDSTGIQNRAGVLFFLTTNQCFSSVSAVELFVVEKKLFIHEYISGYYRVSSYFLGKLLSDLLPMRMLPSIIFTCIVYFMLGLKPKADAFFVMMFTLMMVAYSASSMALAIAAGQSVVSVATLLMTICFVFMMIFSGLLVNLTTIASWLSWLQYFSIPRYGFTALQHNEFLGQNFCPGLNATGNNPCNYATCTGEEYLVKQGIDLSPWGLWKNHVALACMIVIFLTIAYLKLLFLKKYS
From the text: as §1, §2

[6] = PK (free brain-to-free plasma ratio) (mouse); format: in vivo; conditions: male CD-1 mice, oral gavage 10 mg/kg, (B/P)*(Bfu/Pfu)
Method: The ability of N-(2-chloro-3-((5-chloro-3-methyl-4-oxo-3,4-dihydroquinazolin-6-yl)amino)-4-fluorophenyl)-3-fluoroazetidine-1-sulfonamide (Compound 1) to penetrate the BBB in mice was determined by evaluating the unbound brain-to-unbound plasma (also referred to as free brain-to-free plasma) concentration ratio in male CD-1 mice.
Brain compound levels were generated from oral mouse PK dosing with typical sampling times of 2, 4, 8, 12 and 24 hours post oral gavage dosing at 10 mg/kg. Brain samples were stored at −20±5° C. prior to analysis. Concentrations of Compound 1 in mouse brain homogenate were determined by liquid chromatography tandem mass spectrometry (LC-MS/MS) following protein precipitation with acetonitrile. A 12-point calibration curve, ranging from 0.5 to 10,000 ng/mL, was prepared in duplicate. […]
Brain-to-plasma ratios were calculated using the concentration of Compound 1 measured in the brain divided by the concentration of compound measured in the plasma. […] Free brain-to-free plasma ratios were calculated by multiplying the brain-to-plasma ratio by the in vitro brain homogenate free fraction divided by the in vitro plasma free fraction using the following equation: (B/P)*(Bfu/Pfu). […]

Row | SMILES | BCRP efflux ratio (BCRP [1]) | physical stability under accelerated stability conditions [2] | Solid form identified by PXRD after 8 days ([2]; stored at 5° C.) | Solid form identified by PXRD after 8 days ([2]; stored at 70° C./75% RH) | Hygroscopicity [3] | Mass Gain at 25° C. and 90% RH [3] | other results
1 | CC(C)(C)c1nc(-c2cccc(NS(=O)(=O)c3c(F)cccc3F)c2F)c(-c2ccnc(N)n2)s1 [dabrafenib] | 21.0 |  |  |  |  |  | 
2 | CCCS(=O)(=O)Nc1ccc(F)c(C(=O)c2c[nH]c3ncc(-c4ccc(Cl)cc4)cc23)c1F [vemurafenib] | 495 |  |  |  |  |  | 
3 | Cn1cnc2ccc(Nc3c(F)ccc(NS(=O)(=O)N4CC(F)C4)c3Cl)c(Cl)c2c1=O [amorphous Compound 1, Form 2, amorphous N-(2-chloro-3-((5-chloro-3-methyl-4-oxo-3,4-dihydroquinazolin-6-yl)amino)-4-fluorophenyl)-3-fluoroazetidine-1-sulfonamide, Form 2] |  | crystallized to crystalline anhydrous Compound 1, Form 1 | amorphous compound 1, | crystalline anhydrous | hygroscopic | approximately 3.6% | Hygroscopicity ([3]; Form 2): Hygroscopic; Mass Gain at 25° C. and 60% RH ([3]; Form 2): 1.7%; Mass Gain at 25° C. and 90% RH ([3]; Form 2): 3.6%; PXRD Post-DVS ([3]; Form 2): amorphous Compound
4 | Cn1cnc2ccc(Nc3c(F)ccc(NS(=O)(=O)N4CC(F)C4)c3Cl)c(Cl)c2c1=O [crystalline anhydrous Compound 1, Form 1, crystalline anhydrous N-(2-chloro-3-((5-chloro-3-methyl-4-oxo-3,4-dihydroquinazolin-6-yl)amino)-4-fluorophenyl)-3-fluoroazetidine-1-sulfonamide, Form 1] |  | stable | crystalline anhydrous | crystalline anhydrous | not hygroscopic; also recorded: Non-Hygroscopic | 0.0% | Mass Gain at 25° C. and 60% RH [3]: 0.0%; PXRD Post-DVS [3]: crystalline anhydrous
5 | Cn1cnc2ccc(Nc3c(F)ccc(NS(=O)(=O)N4CC(F)C4)c3Cl)c(Cl)c2c1=O [Compound 1, N-(2-chloro-3-((5-chloro-3-methyl-4-oxo-3,4-dihydroquinazolin-6-yl)amino)-4-fluorophenyl)-3-fluoroazetidine-1-sulfonamide] |  |  |  |  |  |  | IC50 [4]: 3 nM; substrate of active transporter P-glycoproteins (P-gp) (MDR1 (P-gp)): not a substrate; substrate of active transporter breast cancer resistance protein (BCRP) (BCRP [5]): not a substrate; Kp,uu (unbound brain-to-unbound plasma ratio) [6]: 0.12 to 0.17
